The source of these data is publication PMC6388407 (Toxicological sciences : an official journal of the Society …, 2018).

Read-outs that look alike come from different tables or passages of the source.

The test system of data set [1] is Tk mutants of L5178Y mouse lymphoma cells. Nature of the data set: LOH evaluation of Tk mutants from the MLA. The class given is cell-based. The settings on record: with vs without S9, p < .05.
In data set [2] the test system is thymidine kinase (Tk) gene of the L5178Y/Tk+/− −3.7.2C mouse lymphoma cell line. Nature of the data set: Mouse lymphoma assay. The settings on record: for BMDL10, MLA with S9: lower limit of the 10% BMD, Hill model of PROAST, MF data; for Ranking, MLA with S9: potency ranking by BMDL10, 1 = most potent. The class given is cell-based.
Data set [3] has the same test system. Nature of the data set: Mouse lymphoma assay. The class given is cell-based. The settings on record: for BMDL10, MLA without S9: lower limit of the 10% BMD, Hill model of PROAST, MF data; for Ranking, MLA without S9: potency ranking by BMDL10, 1 = most potent.
Data set [4] has the same test system. The settings on record: ref Guo et al., 2013, cited from earlier work.
The subject of data set [5] is L5178Y mouse lymphoma cells. Nature of the data set: CellTiter-Blue cell viability assay. It is filed as cell-based. The settings on record: read-out: IC20, Blue assay; L5178Y cells, 4-h treatment. For orientation: Resazurin is reduced to fluorescent resorufin, in cell work by metabolically active cells.
In data set [6] the test system is L5178Y mouse lymphoma cells. Nature of the data set: Cellular ATP level assay. The note with it: read-out: IC20, ATP assay; L5178Y cells, 4-h treatment. The class given is cell-based.
Data set [7] concerns thymidine kinase (Tk) gene of the L5178Y/Tk+/− −3.7.2C mouse lymphoma cell line. The settings on record: with S9, at concentration that produced 10%–20% RTG; ref Guo et al., 2013; cited from earlier work.
Data set [8] relates to TK6 human lymphoblastoid cells. The settings on record: ref Guo et al., 2013; cited from earlier work.
Data set [9] concerns L5178Y mouse lymphoma cells. Nature of the data set: MTS cell proliferation assay. The class given is cell-based. The settings on record: 4-h treatment; for reduction in cell viability, MTS assay: at the lowest concentrations tested; for IC20: read-out: IC20, MTS assay, L5178Y cells. On the technique in general: Tetrazolium dyes change colour on reduction, which living cells bring about.

For data set [10], the system named is L5178Y mouse lymphoma cells. Nature of the data set: Alkaline Comet assay. The note with it: for lowest concentration that induced significant DNA damage / highest percentage of DNA in tail: 4-h treatment; for lowest concentration that induced significant DNA damage: absence of S9; for highest percentage of DNA in tail: absence of S9, background approximately 5%; for BMDL10, Comet assay: lower limit of the 10% BMD, Hill model of PROAST, %DNA in tail data, without S9. It is filed as cell-based.

Data set [11] relates to Chinese hamster ovary AS52 cells. The settings on record: CHO AS52 cells; ref DeGraff et al., 1992; cited from earlier work.
For data set [12], the system named is Chinese hamster cells. The settings on record: ref Mitchell et al., 1991, cited from earlier work.
Data set [13] can be described thus: CellTiter-Blue cell viability assay. The class given is cell-based, mouse. The settings on record: mouse, L5178Y mouse lymphoma cells.
Data set [14] can be described thus: Cellular ATP level assay. The settings on record: mouse, L5178Y mouse lymphoma cells. The class given is cell-based, mouse.
A short description of data set [15]: MTS cell proliferation assay. It is filed as cell-based, mouse. The settings on record: mouse.
[16] abbreviates: absence of S9, at the cytotoxicity limit for the MLA.
Setting [17] is: without S9, at concentration that produced 10%–20% RTG.

What is called IC20 is the concentration at which the effect reaches the 20% level. For the molecule `CC1(C)CCCC(C)(C)N1[O]` [TEMPO, 2,2,6,6-tetramethylphiperidine-1-oxyl], the “effect of metabolic activation on mutational spectra (LOH)” value in data set [1] is “significantly altered”. For the same molecule, in data set [2], the “BMDL10, MLA with S9” value stood at 0.257 and the “Ranking, MLA with S9” value was found to be 2. In addition, in data set [3], the “BMDL10, MLA without S9” value amounted to 0.981 and the “Ranking, MLA without S9” value is on record as 3. In data set [4] (setting [16]), the “mutant frequency (MF)” value is reported as 208 × 10^−6. Moreover, in [4] (earlier study, with and without 1% S9), the MLA result is reported as “mutagenic”. In [4] (setting [17]), the “mutant frequency (MF)” value was 208 per million cells. Further, in data set [5], the IC20 turned out to be 4970 µM. For the same molecule, the IC20 in [6] was found to be 1920 µM. The “mutant frequency (MF)” value in [7] is recorded as 502 per million cells. The micronucleus induction entry in data set [8] is listed as “induced micronuclei”. Further, in data set [9], the “reduction in cell viability, MTS assay” value is listed as “approximately 50%” and the IC20 was 11 µM. Besides, in data set [10], the “lowest concentration that induced significant DNA damage” value stood at 2 mM; the “highest percentage of DNA in tail” value was 28%; the “BMDL10, Comet assay” value was determined as 0.454.
Turning to `CC1(C)CC(=O)CC(C)(C)N1[O]` [4-oxo-TEMPO], in data set [2], the “BMDL10, MLA with S9” value amounted to 0.058 and the “Ranking, MLA with S9” value came to 1. Also, the “mutant frequency (MF)” value in data set [3] (setting [16]) is listed as 584 × 10^−6. For the same molecule, in data set [3], the “BMDL10, MLA without S9” value stood at 0.661 and the “Ranking, MLA without S9” value was 1. In data set [5], the IC20 came to 1950 µM. Further, in data set [6], the IC20 came to 1730 µM. Also, in [9], the IC20 was determined as 1550 µM. In addition, in data set [10], the “lowest concentration that induced significant DNA damage” value came to 3 mM; the “highest percentage of DNA in tail” value is 14%; the “BMDL10, Comet assay” value is given as 1.114.
For `COC1CC(C)(C)N([O])C(C)(C)C1` [4-methoxy-TEMPO], in data set [2], the “BMDL10, MLA with S9” value is on record as 0.770 and the “Ranking, MLA with S9” value was found to be 3. Further, the “mutant frequency (MF)” value in [2] (with S9, at concentration that produced 10%–20% RTG) amounted to 961 per million cells. Moreover, the “mutant frequency (MF)” value in data set [3] (setting [16]) is 537 × 10^−6. Moreover, in data set [3], the “BMDL10, MLA without S9” value is 0.756 and the “Ranking, MLA without S9” value turned out to be 2. Further, in data set [3] (setting [17]), the “mutant frequency (MF)” value came to 508 per million cells. Moreover, the IC20 in data set [5] was 2580 µM. The IC20 in data set [6] turned out to be 3870 µM. In data set [9], the “reduction in cell viability, MTS assay” value is “approximately 50%” and the IC20 is 30 µM. Further, in data set [10], the “lowest concentration that induced significant DNA damage” value stood at 6 mM; the “highest percentage of DNA in tail” value came out at 13%; the “BMDL10, Comet assay” value amounted to 3.358.
Turning to `CC1(C)CC(O)CC(C)(C)N1[O]` [4-hydroxy-TEMPO], in data set [1], the “effect of metabolic activation on mutational spectra (LOH)” value is “significantly altered”. Moreover, the mutagenicity and toxicity result in [11] is recorded as “not mutagenic or toxic”. Besides, in data set [2], the “BMDL10, MLA with S9” value came to 1.024 and the “Ranking, MLA with S9” value is reported as 4. Besides, in data set [3], the “BMDL10, MLA without S9” value is given as 1.300 and the “Ranking, MLA without S9” value is listed as 4. Further, in [12] (10 mM for 10 min prior to X-irradiation), the radiation protection factor is listed as 1.3. Moreover, the radiation protection factor in data set [12] (100 mM for 10 min prior to X-irradiation) is reported as 2.5. The IC20 at 4 h in data set [13] turned out to be 1780 µM. Also, the IC20 at 4 h in data set [14] was 6390 µM. In addition, in [9], the “reduction in cell viability, MTS assay” value is listed as “approximately 50%”. In [15], this molecule came in with an IC20 at 4 h of 356 µM. Further, in data set [10], the “lowest concentration that induced significant DNA damage” value is 4 mM; the “highest percentage of DNA in tail” value stood at 21%; the “BMDL10, Comet assay” value is 1.612.
